{
  "source": "patent US7381736B2",
  "about": "“Thiazole and thiadiazole inhibitors of tyrosine phosphatases” (Metabasis Therapeutics, Inc., priority 2004, dated 2008)",
  "data": [
    {"tested_on": "FAO rat hepatoma cells", "test": "Cell based assays (IR phosphorylation assays)", "settings": "prodrug vs parent carboxylic-phosphonic acid", "text": "Antibodies and Chemicals. The antibody against phosphorylated insulin receptor (pIR) and the ELISA kit for detection of pIR were from Biosource (Camarillo, Calif.). Rabbit anti-IR/IGF-1R [pYpY1162/1163] phosphospecific antibody recognizes both the insulin receptor (IR) and the insulin-like growth factor-1 receptor (IGF-1R) phosphorylated at the active site tyrosine residues, 1162 and 1163 (1135 and 1136 for IGF-1R) (pIR/pIGF-1R). The Insulin Receptor [pYpY1162/1163] […] HRP-conjugated secondary antibodies were from Cell Signaling Technology (Beverly, Mass.). The ECL detection system was from Amersham (Buckinghamshire, UK), and human insulin was from Invitrogen (Carlsbad, Calif.).\nTissue Culture. FAO rat hepatoma cells were obtained from ECACC (#89042701) and maintained at 37° C. in a 5% CO2 environment in Dulbecco's modified Eagle's medium with high glucose (DMEM-high glucose) (4500 mg/liter) supplemented with 10% FBS and 50 units/ml penicillin, 100 µg/ml streptomycin and 0.292 mg/ml L-glutamine. For assays, cells were seeded in 24-well plates at a density of 2×10^5 cells/well and maintained until they reached confluency (about 3 days).\nIR phosphorylation assays. Cells in 24-well plates were serum starved overnight in DMEM-low glucose (1000 mg/liter) without serum. […] The pIR/pIGF-1R signals were scanned (HP scanjet 3570c) and quantified (Scion Image). […]", "units": {"increase in activity in a cell-based assay as compared to the parent carboxylic-phosphonic acid": "fold"}, "values": [
      {"smiles": "CC(C)(C)C(=O)OCOC(=O)c1ccc(-c2csc(NCc3ccc(C(F)(F)P(=O)(O)OCOC(=O)C(C)(C)C)c(Br)c3)n2)cc1", "note": "[4-[2-(3-Bromo-4-{[(2,2-dimethyl-propionyloxymethoxy)-hydroxy-phosphoryl]-difluoro-methyl}-benzylamino)-thiazol-4-yl]-benzoic acid 2,2-dimethyl-propionyloxymethyl ester]", "increase in activity in a cell-based assay as compared to the parent carboxylic-phosphonic acid": "~10"}
    ]},
    {"tested_on": "not given", "test": "not given", "settings": "not given", "units": {"melting point": "°C"}, "values": [
      {"smiles": "COC(=O)c1cccc(Oc2cccc(-c3nn(Cc4ccc(C(F)(F)P(=O)(O)O)c(Cl)c4)c(=Nc4ccc(Cl)c(Cl)c4)s3)c2)c1", "note": "[Example 9, 3-{3-[4-[3-Chloro-4-(difluoro-phosphono-methyl)-benzyl]-5-(3,4-dichloro-phenylimino)-4,5-dihydro-[1,3,4]thiadiazol-2-yl]-phenoxy}-benzoic acid methyl ester]", "melting point": "137 to 139"},
      {"smiles": "COC(=O)c1cccc(Oc2cccc(-c3nn(Cc4ccc(C(F)(F)P(=O)(O)O)c(F)c4)c(=Nc4ccc(Cl)c(Cl)c4)s3)c2)c1", "note": "[Example 11, 3-(3-{5-(3,4-Dichloro-phenylimino)-4-[4-(difluoro-phosphono-methyl)-3-fluoro-benzyl]-4,5-dihydro-[1,3,4]thiadiazol-2-yl}-phenoxy)-benzoic acid methyl ester]", "melting point": "137 to 139"},
      {"smiles": "O=C(O)c1cccc(Oc2cccc(-c3nnc(N(Cc4ccc(C(F)(F)P(=O)(O)O)c(Cl)c4)c4ccc(Cl)c(Cl)c4)s3)c2)c1", "note": "[Example 46, 3-(3-{5-[[3-Chloro-4-(difluoro-phosphono-methyl)-benzyl]-(3,4-dichloro-phenyl)-amino]-[1,3,4]thiadiazol-2-yl}-phenoxy)-benzoic acid]", "melting point": "178 to 180"},
      {"smiles": "O=C(O)c1cccc(Oc2cccc(-c3nn(Cc4ccc(C(F)(F)P(=O)(O)O)c(F)c4)c(=Nc4ccc(Cl)c(Cl)c4)s3)c2)c1", "note": "[Example 10, 3-(3-{5-(3,4-Dichloro-phenylimino)-4-[4-(difluoro-phosphono-methyl)-3-fluoro-benzyl]-4,5-dihydro-[1,3,4]thiadiazol-2-yl}-phenoxy)-benzoic acid]", "melting point": "153 to 156"},
      {"smiles": "COC(=O)c1cccc(Oc2cccc(-c3nnc(N(Cc4ccc(C(F)(F)P(=O)(O)O)c(Cl)c4)c4ccc(Cl)c(Cl)c4)s3)c2)c1", "note": "[Example 48, 3-(3-{5-[[3-Chloro-4-(difluoro-phosphono-methyl)-benzyl]-(3,4-dichloro-phenyl)-amino]-[1,3,4]thiadiazol-2-yl}-phenoxy)-benzoic acid methyl ester]", "melting point": "73 to 76"},
      {"smiles": "O=C(O)c1cccc(Oc2cccc(-c3nn(Cc4ccc(C(F)(F)P(=O)(O)O)c(Cl)c4)c(=Nc4ccc(Cl)c(Cl)c4)s3)c2)c1", "note": "[Example 8, 3-{3-[4-[3-Chloro-4-(difluoro-phosphono-methyl)-benzyl]-5-(3,4-dichloro-phenylimino)-4,5-dihydro-[1,3,4]thiadiazol-2-yl]-phenoxy}-benzoic acid]", "melting point": "212 to 215"}
    ]}
  ]
}
